Assay results as given in patent publication US9598387B2 (Southern Research Institute, priority 2012, dated 2017).

Legend:
[1] = molecular target: human D3 dopamine receptor (Homo sapiens (Human), UniProt P35462); test: Radioligand binding (125I-IABN competition), D3; conditions: for Ki: 125I-IABN competition, HEK cell membranes expressing human D3; for D2/D3 (D3 selectivity ratio, D2 Ki/D3 Ki): calculated D2 Ki/D3 Ki
Protocol: (§1) The affinities of the target compounds were determined using radioligand binding experiments. […] Competition curves were modeled for a single site. Data from competition dose-response curves were analyzed using Tablecurve program (Jandel). IC50 values were converted to equilibrium dissociation constants (Ki values) using the Cheng and Prusoff correction.

[2] = molecular target: human D2-long dopamine receptor (Homo sapiens (Human), UniProt P14416); test: Radioligand binding (125I-IABN competition), D2; conditions: HEK cell membranes expressing human D2-long
human D2-long dopamine receptor, sequence (P14416 whole entry): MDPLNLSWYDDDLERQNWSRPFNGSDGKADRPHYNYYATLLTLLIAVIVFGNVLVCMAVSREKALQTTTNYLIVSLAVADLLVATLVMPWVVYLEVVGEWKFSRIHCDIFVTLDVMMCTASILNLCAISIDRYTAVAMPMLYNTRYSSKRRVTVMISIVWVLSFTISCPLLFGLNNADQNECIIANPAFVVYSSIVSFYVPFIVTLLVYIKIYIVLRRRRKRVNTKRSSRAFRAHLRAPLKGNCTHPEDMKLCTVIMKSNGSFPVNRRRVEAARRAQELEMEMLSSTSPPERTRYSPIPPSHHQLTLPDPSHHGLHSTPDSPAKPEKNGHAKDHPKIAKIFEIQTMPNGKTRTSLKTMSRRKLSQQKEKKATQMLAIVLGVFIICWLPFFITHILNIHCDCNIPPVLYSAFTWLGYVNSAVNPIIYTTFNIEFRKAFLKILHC
Protocol: as §1

human D3 dopamine receptor, sequence (P35462 whole entry): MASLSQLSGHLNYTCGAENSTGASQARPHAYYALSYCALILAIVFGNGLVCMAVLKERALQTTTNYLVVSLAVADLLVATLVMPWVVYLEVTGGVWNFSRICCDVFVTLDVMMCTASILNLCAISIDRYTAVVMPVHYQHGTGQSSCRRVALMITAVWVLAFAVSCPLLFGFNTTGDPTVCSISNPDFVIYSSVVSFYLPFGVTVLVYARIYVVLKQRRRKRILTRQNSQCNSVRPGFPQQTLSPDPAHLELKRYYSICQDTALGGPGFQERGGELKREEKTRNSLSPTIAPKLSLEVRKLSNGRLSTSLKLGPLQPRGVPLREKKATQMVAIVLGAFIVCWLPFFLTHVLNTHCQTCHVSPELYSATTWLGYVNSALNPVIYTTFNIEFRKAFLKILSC

Ki [1] | D2/D3 (D3 selectivity ratio, D2 Ki/D3 Ki) [1] | Ki [2] | Compound
31.9 ± 7.2 nM | 28 | 906 ± 169 nM | Cc1cc(N2CCN(CCCCNC(=O)N3CCN(S(=O)(=O)c4ccccc4)CC3)CC2)nc(C(C)(C)C)n1 [Compound 46, N-(4-(4-(2-(tert-Butyl)-6-methylpyrimidin-4-yl)piperazin-1-yl)butyl)-4-(phenylsulfonyl)piperazine-1-carboxamide]
27 ± 3.9 nM | 47 | 1270 ± 291 nM | CC(C)(C)c1nc(N2CCN(CCCCNC(=O)N3CCC(O)(c4ccccc4)CC3)CC2)cc(C(F)(F)F)n1 [Compound 49, N-(4-(4-(2-(tert-Butyl)-6-(trifluoromethyl)pyrimidin-4-yl)piperazin-1-yl)butyl)-4-hydroxy-4-phenylpiperidine-1-carboxamide]
18.4 ± 2.6 nM | 33 | 603 ± 104 nM | CC(C)(C)c1nc(N2CCN(CCCCNC(=O)N3CCC(Cc4ccccc4)CC3)CC2)cc(C(F)(F)F)n1 [Compound 50, 4-Benzyl-N-(4-(4-(2-(tert-butyl)-6-(trifluoromethyl)pyrimidin-4-yl)piperazin-1-yl)butyl)piperidine-1-carboxamide]
44.1 ± 8.1 nM | 29 | 1290 ± 248 nM | CC(C)(C)c1nc(N2CCN(CCCCNC(=O)N3CCC(Oc4ccccc4)CC3)CC2)cc(C(F)(F)F)n1 [Compound 51, N-(4-(4-(2-(tert-Butyl)-6-(trifluoromethyl)pyrimidin-4-yl)piperazin-1-yl)butyl)-4-phenoxypiperidine-1-carboxamide]
35.2 ± 8.2 nM | 20 | 713 ± 78.3 nM | CC(C)(C)c1nc(N2CCN(CCCCNC(=O)N3CCC(n4c(=O)[nH]c5ccccc54)CC3)CC2)cc(C(F)(F)F)n1 [Compound 53, N-(4-(4-(2-(tert-Butyl)-6-(trifluoromethyl)pyrimidin-4-yl)piperazin-1-yl)butyl)-4-(2-oxo-2,3-dihydro-1H-benzo[d]imidazol-1-yl)piperidine-1-carboxamide]
40.3 ± 7.2 nM | 26 | 1050 ± 149 nM | CC(C)(C)c1nc(N2CCN(CCCCNC(=O)N3CCc4[nH]c5ccc(C#N)cc5c4C3)CC2)cc(C(F)(F)F)n1 [Compound 54, N-(4-(4-(2-(tert-Butyl)-6-(trifluoromethyl)pyrimidin-4-yl)piperazin-1-yl)butyl)-8-cyano-3,4-dihydro-1H-pyrido[4,3-b]indole-2(5H)-carboxamide]
9.5 ± 1.7 nM | 33 | 308 ± 29.9 nM | CC(C)(C)c1cc(N2CCN(CCCCNC(=O)N3CCc4[nH]c5ccccc5c4C3)CC2)nc(C(C)(C)C)n1 [Compound 56, N-(4-(4-(2,6-Di-tert-butylpyrimidin-4-yl)piperazin-1-yl)butyl)-3,4-dihydro-1H-pyrido[4,3-b]indole-2(5H)-carboxamide]
35.5 ± 7.2 nM | 18 | 644 ± 6.6 nM | CC(C)(C)c1nc(N2CCN(CCCCNC(=O)N3CCN(c4ccc(Cl)cc4)CC3)CC2)cc(C(F)(F)F)n1 [Compound 57, N-(4-(4-(2-(tert-Butyl)-6-(trifluoromethyl)pyrimidin-4-yl)piperazin-1-yl)butyl)-4-(4-chlorophenyl)piperazine-1-carboxamide]
70.6 ± 14.8 nM | 11 | 789 ± 192 nM | Cc1ccccc1N1CCN(C(=O)NCCCCN2CCN(c3cc(C(F)(F)F)nc(C(C)(C)C)n3)CC2)CC1 [Compound 58, N-(4-(4-(2-(tert-Butyl)-6-(trifluoromethyl)pyrimidin-4-yl)piperazin-1-yl)butyl)-4-(o-tolyl)piperazine-1-carboxamide]
19.4 ± 4.1 nM | 18 | 342 ± 22 nM | CC(C)(C)c1nc(N2CCN(CCCCNC(=O)N3CCN(c4ccc(C#N)cc4)CC3)CC2)cc(C(F)(F)F)n1 [Compound 59, N-(4-(4-(2-(tert-Butyl)-6-(trifluoromethyl)pyrimidin-4-yl)piperazin-1-yl)butyl)-4-(4-cyanophenyl)piperazine-1-carboxamide]
